Assay results from US20230150970A1, “AMINOPYRIMIDINE DERIVATIVES AND THEIR USE AS ARYL HYDROCARBON RECEPTOR MODULATORS” (DONG-A ST CO., LTD., priority 2020, published 2023).
Like-named read-outs stand apart in the source and are kept apart here.

How the values were obtained:
AhR [1] = target: T1, AhR (Homo sapiens, UniProt P35869); test: In Vitro Assay 1: XRE-luciferase reporter assay, antagonism in human cell line (HepG2)
T1 sequence (P35869 11-848): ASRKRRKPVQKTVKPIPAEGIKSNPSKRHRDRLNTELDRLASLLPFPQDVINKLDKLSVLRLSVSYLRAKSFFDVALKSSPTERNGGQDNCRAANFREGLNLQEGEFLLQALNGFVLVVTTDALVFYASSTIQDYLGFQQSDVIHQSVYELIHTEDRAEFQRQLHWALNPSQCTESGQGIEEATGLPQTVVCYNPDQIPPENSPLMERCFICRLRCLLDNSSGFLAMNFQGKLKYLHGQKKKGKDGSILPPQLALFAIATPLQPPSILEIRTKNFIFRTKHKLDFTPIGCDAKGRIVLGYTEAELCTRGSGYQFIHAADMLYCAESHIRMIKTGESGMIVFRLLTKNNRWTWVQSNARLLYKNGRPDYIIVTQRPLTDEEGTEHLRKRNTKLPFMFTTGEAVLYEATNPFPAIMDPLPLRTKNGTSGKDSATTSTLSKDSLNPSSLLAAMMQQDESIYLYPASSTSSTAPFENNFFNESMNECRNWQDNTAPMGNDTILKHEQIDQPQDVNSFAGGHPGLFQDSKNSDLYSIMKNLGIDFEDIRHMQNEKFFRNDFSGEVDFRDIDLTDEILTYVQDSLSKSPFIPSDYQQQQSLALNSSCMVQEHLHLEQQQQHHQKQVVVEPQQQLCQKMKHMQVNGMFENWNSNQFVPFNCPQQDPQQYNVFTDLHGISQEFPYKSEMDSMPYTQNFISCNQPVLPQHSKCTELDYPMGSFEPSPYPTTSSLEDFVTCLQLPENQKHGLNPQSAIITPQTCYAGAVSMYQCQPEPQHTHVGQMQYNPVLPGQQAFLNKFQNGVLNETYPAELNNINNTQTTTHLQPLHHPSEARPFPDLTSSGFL

AhR [2] = target: T1, AhR; test: In Vitro Assay 4: endogenous AhR activity assay (CYP1A1 and CYP1B1 mRNA, qRT-PCR, HepG2 cells)
Description: In Vitro Assay 4: Endogenous AhR Activity Assay
HepG2 cells were seeded in 12-well plate (3×10^5 cells/well). A day after seeding, the cells were treated with TCDD (10 nM) alone or with compounds (123 nM) for 4 hours. Total RNA was extracted using Trizol (Thermo Fisher Scientific). cDNA synthesis and quantitative RT-PCR (qRT-PCR) assays were performed using PrimeScript™ RT Master Mix (TAKARA) and TB Green™ Premix Ex Taq™ II (TAKARA) in accordance with manufacturer's instruction. For the measurement of endogenous AhR activity, relative mRNA levels of CYP1A1 and CYP1B1 were quantitated relative to β-actin mRNA by the comparative Ct (ΔΔCt) method. The percent inhibitions were calculated according to:

AhR [3] = target: T1, AhR; test: In Vitro Assay 3: XRE-luciferase reporter assay, agonism in human cell line (HepG2); assay type: cell-based; parameters: endogenous in cells; host or cells: HepG2; settings: HepG2, tryptophan free medium, 6 hours, no agonist, read-out: Assay 3: AhR-Luc Human Agonism (EC50)
Description: In Vitro Assay 3: Agonism in Human Cell Line
HepG2 (human hepatoma cell line) cells co-transfected with XRE-Luc and Nano-Luc plasmids were plated in tryptophan free medium containing 1% of dialyzed fetal bovine serum and incubated overnight at 37° C. in a CO2 incubator. After 24 hours, cells were treated for 6 hours with test compounds or not. […] As a positive control, cells were incubated with TCDD.

[4] = Assay 1: AhR-Luc Human Antagonism (IC50, nM), values marked *: kynurenine 50 μM, 6 hours
[5] = HepG2, read-out: CYP1A1 (% Inhibition)
[6] = HepG2, read-out: CYP1B1 (% Inhibition)
[7] = Assay 1: AhR-Luc Human Antagonism (IC50, nM), unmarked values: kynurenine 200 μM, 6 hours
[8] = read-out: Assay 1: AhR-Luc Human Antagonism (IC50), values marked *: kynurenine 50 μM, 6 hours

## CC1CCN(c2cc(-c3ccc(Cl)cc3)nc(-c3cccnc3)n2)CC1 [Example 27, 4-(4-chlorophenyl)-6-(4-methylpiperidin-1-yl)-2-(pyridin-3-yl)pyrimidine]
AhR [1]; [4]
  IC50: < 10 nM
AhR [2]; [5]
  inhibition at 0.123 µM: 68.4%
AhR [2]; [6]
  inhibition at 0.123 µM: 90.3%

## OCC1CCN(c2cc(-c3ccc(Cl)cc3)nc(-c3cccnc3)n2)CC1 [Example 42, (1-(6-(4-chlorophenyl)-2-(pyridin-3-yl)pyrimidin-4-yl)piperidin-4-yl)methanol]
AhR [1]; [4]
  IC50: < 10 nM
AhR [2]; [5]
  inhibition at 0.123 µM: 98.8%
AhR [2]; [6]
  inhibition at 0.123 µM: 99.3%

## OCCC1CCN(c2cc(-c3ccc(Cl)cc3)nc(-c3cccnc3)n2)CC1 [Example 43, 2-(1-(6-(4-chlorophenyl)-2-(pyridin-3-yl)pyrimidin-4-yl)piperidin-4-yl)ethan-1-ol]
AhR [1]; [4]
  IC50: < 10 nM
AhR [2]; [5]
  inhibition at 0.123 µM: 97.1%
AhR [2]; [6]
  inhibition at 0.123 µM: 100%

## C[C@@H]1CN(c2cc(-c3ccc(Cl)cc3)nc(-c3cccnc3)n2)C[C@H](C)O1 [Example 70, cis-4-(6-(4-chlorophenyl)-2-(pyridin-3-yl)pyrimidin-4-yl)-2,6-dimethylmorpholine]
AhR [3]; number of the cell
  EC50: 758 nM
AhR [1]; [4]
  IC50: > 1000 nM

## Cc1cccc(N2CCN(c3cc(-c4ccc(Cl)cc4)nc(-c4cccnc4)n3)CC2)c1C [Example 118, 4-(4-chlorophenyl)-6-(4-(2,3-dimethylphenyl)piperazin-1-yl)-2-(pyridin-3-yl)pyrimidine]
AhR [3]; number of the cell
  EC50: 1580 nM
AhR [1]; [4]
  IC50: 10 to 100 nM

## C[C@@H](O)[C@@H](C)Nc1cc(-c2ccc(Cl)cc2)nc(-c2cccnc2)n1 [Example 144, (2R,3R)-3-((6-(4-chlorophenyl)-2-(pyridin-3-yl)pyrimidin-4-yl)amino)butan-2-ol]
AhR [3]; number of the cell
  EC50: 55.9 nM
AhR [1]; [4]
  IC50: 10 to 100 nM

## CC(=O)N1CCC(Nc2cc(-c3ccc(Cl)cc3)nc(-c3cccnc3)n2)CC1 [Example 146, 1-(4-((6-(4-chlorophenyl)-2-(pyridin-3-yl)pyrimidin-4-yl)amino)piperidin-1-yl)ethan-1-one]
AhR [1]; [4]
  IC50: 10 to 100 nM
AhR [2]; [5]
  inhibition at 0.123 µM: 41.8%
AhR [2]; [6]
  inhibition at 0.123 µM: 77.2%

## COCCN1CCC(CNc2cc(-c3ccc(Cl)cc3)nc(-c3cccnc3)n2)CC1 [Example 170, 6-(4-chlorophenyl)-N-((1-(2-methoxyethyl)piperidin-4-yl)methyl)-2-(pyridin-3-yl)pyrimidin-4-amine]
AhR [3]; class in brackets of the cell
  EC50: > 10000 nM
AhR [3]; number of the cell
  EC50: > 30000 nM
AhR [1]; [4]
  IC50: 10 to 100 nM

## CC(CO)N1CCN(c2cc(-c3ccc(Cl)cc3)nc(-c3cccnc3)n2)CC1 (stereo not shown) [Example 224, 2-(4-(6-(4-chlorophenyl)-2-(pyridin-3-yl)pyrimidin-4-yl)piperazin-1-yl)propan-1-ol]
AhR [3]; class in brackets of the cell
  EC50: > 10000 nM
AhR [3]; number of the cell
  EC50: > 30000 nM
AhR [1]; [4]
  IC50: < 10 nM

## COCC(=O)NC1CCN(c2cc(-c3ccc(Cl)cc3)nc(-c3cccnc3)n2)CC1 [Example 225, N-(1-(6-(4-chlorophenyl)-2-(pyridin-3-yl)pyrimidin-4-yl)piperidin-4-yl)-2-methoxyacetamide]
AhR [3]; class in brackets of the cell
  EC50: > 10000 nM
AhR [3]; number of the cell
  EC50: > 30000 nM
AhR [1]; [4]
  IC50: < 10 nM

## OCC1CCN(c2cc(-c3ccc(Cl)c(F)c3)nc(-c3cccnc3)n2)CC1 [Example 246, (1-(6-(4-chloro-3-fluorophenyl)-2-(pyridin-3-yl)pyrimidin-4-yl)piperidin-4-yl)methanol]
AhR [3]; class in brackets of the cell
  EC50: > 10000 nM
AhR [3]; number of the cell
  EC50: > 30000 nM
AhR [1]; [7]
  IC50: < 10 nM

## OC[C@H]1CCN(c2cc(-c3ccc(C(F)(F)F)cc3)nc(-c3cccnc3)n2)C[C@@H]1O [Example 260, (3R,4R)-4-(hydroxymethyl)-1-(2-(pyridin-3-yl)-6-(4-(trifluoromethyl)phenyl)pyrimidin-4-yl)piperidin-3-ol]
AhR [3]; class in brackets of the cell
  EC50: > 10000 nM
AhR [3]; number of the cell
  EC50: > 30000 nM
AhR [1]; [7]
  IC50: < 10 nM

## OC[C@@H]1CCN(c2cc(-c3ccc(C(F)(F)F)cc3)nc(-c3cccnc3)n2)C[C@H]1O [Example 262, (3S,4S)-4-(hydroxymethyl)-1-(2-(pyridin-3-yl)-6-(4-(trifluoromethyl)phenyl)pyrimidin-4-yl)piperidin-3-ol]
AhR [3]; class in brackets of the cell
  EC50: > 10000 nM
AhR [3]; number of the cell
  EC50: > 30000 nM
AhR [1]; [7]
  IC50: < 10 nM

## OCC1CCN(c2cc(-c3ccc(Cl)c(O)c3)nc(-c3cccnc3)n2)CC1 [Example 273, 2-chloro-5-(6-(4-(hydroxymethyl)piperidin-1-yl)-2-(pyridin-3-yl)pyrimidin-4-yl)phenol]
AhR [3]; class in brackets of the cell
  EC50: > 10000 nM
AhR [3]; number of the cell
  EC50: > 30000 nM
AhR [1]; [7]
  IC50: 10 to 100 nM

## OCC1CCN(c2cc(-c3ccc(N4CCOCC4)c(F)c3)nc(-c3cccnc3)n2)CC1 [Example 276, (1-(6-(3-fluoro-4-morpholinophenyl)-2-(pyridin-3-yl)pyrimidin-4-yl)piperidin-4-yl)methanol]
AhR [3]; class in brackets of the cell
  EC50: > 10000 nM
AhR [3]; number of the cell
  EC50: > 30000 nM
AhR [1]; [7]
  IC50: < 10 nM

## OCC1CCN(c2cc(-c3ccc(OC4CCCCO4)cc3)nc(-c3cccnc3)n2)CC1 (stereo not shown) [Example 278, (1-(2-(pyridin-3-yl)-6-(4-((tetrahydro-2H-pyran-2-yl)oxy)phenyl)pyrimidin-4-yl)piperidin-4-yl)methanol]
AhR [3]; class in brackets of the cell
  EC50: > 10000 nM
AhR [3]; number of the cell
  EC50: > 30000 nM
AhR [1]; [7]
  IC50: 10 to 100 nM

## OCC1CCN(c2cc(-c3ccc(N4CCOCC4)nc3)nc(-c3cccnc3)n2)CC1 [Example 289, (1-(6-(6-morpholinopyridin-3-yl)-2-(pyridin-3-yl)pyrimidin-4-yl)piperidin-4-yl)methanol]
AhR [3]; class in brackets of the cell
  EC50: > 10000 nM
AhR [3]; number of the cell
  EC50: > 30000 nM
AhR [1]; [7]
  IC50: < 10 nM

## O[C@H]1CON(c2cc(-c3ccc(C(F)(F)F)cc3)nc(-c3cccnc3)n2)C1 [Example 314, (R)-2-(2-(pyridin-3-yl)-6-(4-(trifluoromethyl)phenyl)pyrimidin-4-yl)isoxazolidin-4-ol]
AhR [3]; class in brackets of the cell
  EC50: > 10000 nM
AhR [3]; number of the cell
  EC50: > 30000 nM
AhR [1]; [7]
  IC50: < 10 nM

## O=C(CCCO)N1CCN(c2cc(-c3ccc(Cl)cc3)nc(-c3cccnc3)n2)CC1 [Example 361, 1-(4-(6-(4-chlorophenyl)-2-(pyridin-3-yl)pyrimidin-4-yl)piperazin-1-yl)-4-hydroxybutan-1-one]
AhR [3]; class in brackets of the cell
  EC50: > 10000 nM
AhR [3]; number of the cell
  EC50: > 30000 nM
AhR [1]; [7]
  IC50: < 10 nM

## CN(C)CCNc1ccc(-c2cc(N3CC[C@H](O)C3)nc(-c3cccnc3)n2)cc1 [Example 374, (S)-1-(6-(4-((2-(dimethylamino)ethyl)amino)phenyl)-2-(pyridin-3-yl)pyrimidin-4-yl)pyrrolidin-3-ol]
AhR [1]; [7]
  IC50: > 1000 nM

## CN(C)CCOc1ccc(-c2cc(N3CC[C@H](O)C3)nc(-c3cccnc3)n2)cc1 [Example 375, (S)-1-(6-(4-(2-(dimethylamino)ethoxy)phenyl)-2-(pyridin-3-yl)pyrimidin-4-yl)pyrrolidin-3-ol]
AhR [1]; [7]
  IC50: > 1000 nM

## OCCNc1ccc(-c2cc(N3CC[C@H](O)C3)nc(-c3cccnc3)n2)cc1 [Example 376, (S)-1-(6-(4-((2-hydroxyethyl)amino)phenyl)-2-(pyridin-3-yl)pyrimidin-4-yl)pyrrolidin-3-ol]
AhR [1]; [7]
  IC50: 100 to 1000 nM

## (R)-(4-(6-(4-chlorophenyl)-2-(pyridin-3-yl)pyrimidin-4-yl)piperazin-2-yl)methanol [Example 79]
AhR [1]; [8]
  IC50: > 1000 nM

## Cis-4-((6-(4-chlorophenyl)-2-(pyridin-3-yl)pyrimidin-4-yl)amino)cyclohexan-1-ol [Example 216]
AhR [1]; [8]
  IC50: 10 to 100 nM

## Cis-(4-((6-(4-chlorophenyl)-2-(pyridin-3-yl)pyrimidin-4-yl)amino)cyclohexyl)methanol [Example 215]
AhR [1]; [8]
  IC50: 10 to 100 nM

## Trans-4-((6-(4-chlorophenyl)-2-(pyridin-3-yl)pyrimidin-4-yl)amino)cyclohexan-1-ol [Example 217]
AhR [1]; [8]
  IC50: 10 to 100 nM
